The record followed here is ChEMBL document CHEMBL2169779, “Mitigating heterocycle metabolism in drug discovery” (J Med Chem, 2012).

In data set [1] the target is Metabotropic glutamate receptor 5 (Homo sapiens, UniProt P41594). Nature of the data set: Antagonist activity at mGlu5 receptor. The data set is classed as functional.
Data set [2] can be described thus: Oral bioavailability in Sprague-Dawley rat at 5 mg/kg. The data set is classed as ADME, organism-based. Particulars: in vivo.
A short description of data set [3]: Half life in Sprague-Dawley rat at 1 mg/kg, iv. The data set is classed as ADME, organism-based. The arrangement: dose 1 mg/kg, route intravenous. Particulars: in vivo.
A short description of data set [4]: Volume of distribution at steady state in Sprague-Dawley rat at 1 mg/kg, iv. The data set is classed as ADME, organism-based. The arrangement: dose 1 mg/kg, route intravenous. As to conditions: in vivo, read-out: Vdss.
Data set [5] in a line: Plasma clearance in Sprague-Dawley rat at 1 mg/kg, iv. The data set is classed as ADME, organism-based. Set-up: dose 1 mg/kg, route intravenous.
Data set [6] is described as follows: Drug metabolism in rat liver microsomes at 10 uM. The data set is classed as ADME, Microsome. As to conditions: read-out: Drug metabolism.
The nature of data set [7]: physchem.
Description: Dissociation constant, pKa of the compound
A short description of data set [8]: Volume of distribution at steady state in Wistar rat. The data set is classed as ADME, organism-based. Particulars: in vivo, read-out: Vdss.
Data set [9] is described as follows: in vivo. As to conditions: Wistar, rat, po.
Description: Oral bioavailability in Wistar rat
The nature of data set [10]: Intrinsic clearance in Wistar rat. The data set is classed as ADME, organism-based. Particulars: in vivo.
Data set [11] can be described thus: in vivo. Particulars: Wistar, rat.

Metabotropic glutamate receptor 5, sequence (P41594 whole entry): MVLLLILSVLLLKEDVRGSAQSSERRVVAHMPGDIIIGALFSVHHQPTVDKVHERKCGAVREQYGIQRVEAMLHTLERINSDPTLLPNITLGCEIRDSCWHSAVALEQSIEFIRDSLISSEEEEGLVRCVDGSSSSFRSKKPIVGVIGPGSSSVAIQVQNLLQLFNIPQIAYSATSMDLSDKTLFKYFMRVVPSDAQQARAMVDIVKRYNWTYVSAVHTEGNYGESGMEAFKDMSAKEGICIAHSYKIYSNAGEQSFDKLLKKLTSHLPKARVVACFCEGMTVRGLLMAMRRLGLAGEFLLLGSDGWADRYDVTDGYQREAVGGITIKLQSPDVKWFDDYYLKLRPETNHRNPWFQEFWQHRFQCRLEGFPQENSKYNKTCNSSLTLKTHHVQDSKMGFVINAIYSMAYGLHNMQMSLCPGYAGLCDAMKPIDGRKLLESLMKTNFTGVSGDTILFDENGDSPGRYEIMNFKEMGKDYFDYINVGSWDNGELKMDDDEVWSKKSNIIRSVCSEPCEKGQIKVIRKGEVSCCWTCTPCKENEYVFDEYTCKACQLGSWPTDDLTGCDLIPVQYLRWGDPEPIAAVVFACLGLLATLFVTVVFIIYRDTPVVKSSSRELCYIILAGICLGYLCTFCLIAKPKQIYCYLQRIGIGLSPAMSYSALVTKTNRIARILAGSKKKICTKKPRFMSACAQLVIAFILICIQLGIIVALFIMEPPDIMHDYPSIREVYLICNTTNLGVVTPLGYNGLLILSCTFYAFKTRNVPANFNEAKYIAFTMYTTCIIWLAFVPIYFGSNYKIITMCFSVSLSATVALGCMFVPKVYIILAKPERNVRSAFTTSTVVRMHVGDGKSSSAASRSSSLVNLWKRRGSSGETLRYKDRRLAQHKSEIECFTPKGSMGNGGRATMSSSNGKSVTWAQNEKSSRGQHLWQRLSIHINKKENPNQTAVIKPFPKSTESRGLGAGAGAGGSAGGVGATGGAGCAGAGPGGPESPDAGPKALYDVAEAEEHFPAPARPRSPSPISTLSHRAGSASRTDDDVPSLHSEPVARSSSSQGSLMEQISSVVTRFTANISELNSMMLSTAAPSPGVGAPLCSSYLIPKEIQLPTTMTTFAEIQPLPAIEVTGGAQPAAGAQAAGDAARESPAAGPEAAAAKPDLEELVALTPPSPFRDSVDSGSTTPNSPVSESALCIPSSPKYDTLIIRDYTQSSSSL

In the case of `Cc1nc(C(=O)Nc2ccc(O)c(C)n2)c(Nc2cccnc2)s1`, the Ki (usually the dissociation constant of the complex between target and ligand, obtained from inhibition or displacement) in data set [1] was found to be 0.111 µM.

Compound `Cc1nc(C(=O)Nc2cccc(CO)n2)c(Nc2cccnc2)s1` gave a Ki in [1] of 0.067 µM.

For the compound `O=C(Nc1nc(-c2ccc(F)c(C(F)(F)F)c2)c(F)s1)c1cnc(N2CCC(C(=O)O)CC2)c(Cl)c1`, in data set [2], the bioavailability (as a rule, dose-corrected exposure relative to a reference, in per cent) amounted to 73%. For the same compound, in [3], the half-life (as a rule, how long it takes for the measured level to halve) is 1.67 h. For the same compound, in [4], the Vd is 0.34 L/kg. In addition, the clearance (usually the rate of elimination divided by the concentration) in data set [5] worked out at 0.167 L/h/kg.

As to `C[C@@H](C1CC1)n1cc(Br)nc(Nc2c(Cl)cc(OC(F)F)cc2Cl)c1=O`, the metabolised at 10 µM in data set [6] stood at 4%.

Regarding `C1CNC1` [AZETIDINE], the pKa – broadly, the negative logarithm of the acid dissociation constant – in [7] stood at 10.7.

For the compound `Cc1cc(NC(=O)c2nc(C)sc2Nc2cncnc2)ccn1`, the Ki in data set [1] was 0.081 µM.

Take `c1cnccn1` [PYRAZINE]: in data set [7], the pKa was 0.4.

Turning to `CC(C)N1CCC(Oc2ccc3[nH]c(C(=O)N4CCC(F)(F)CC4)cc3c2)CC1`, in data set [8], the Vd was found to be 6 L/kg. This compound also yielded a bioavailability in data set [9] of 100%. Further, the CLint scaled (commonly the capacity of the preparation to metabolise the compound, expressed as a volume cleared per time) in data set [10] came to 1.08 L/h/kg.

In [7], `c1cnsc1` [ISOTHIAZOLE] registered a pKa of -0.51.

`O=C(Nc1nc(-c2ccc(F)c(C(F)(F)F)c2)ns1)c1cnc(N2CCC(C(=O)O)CC2)c(Cl)c1` came in with a bioavailability in [2] of 73.5%. The same compound showed a half-life in data set [3] of 1.09 h. For the same compound, the Vd in [4] worked out at 0.22 L/kg. Moreover, in data set [5], the clearance is 0.0894 L/h/kg.

For `Cc1cn([C@H](C)C2CC2)c(=O)c(Nc2c(Cl)cc(OC(F)F)cc2Cl)n1`, the metabolised at 10 µM in data set [6] was 7%.

Compound `c1ccnnc1` [PYRIDAZINE] gave a pKa in data set [7] of 2.3.

`Cc1nc(C(=O)Nc2ccc(F)cn2)c(Nc2cncnc2)s1`: in data set [1], the inhibition constant Ki came out at 0.031 µM.

Take `C[C@@H](C1CC1)n1cc(Cl)nc(Nc2c(Cl)cc(OC(F)F)cc2Cl)c1=O`: in data set [6], the metabolised at 10 µM was determined as 20%.

In turn, `Cc1cccc(NC(=O)c2nc(C)sc2Nc2cccnc2)n1` displayed a Ki in data set [1] of 0.009 µM.

With `Cc1nc(C(=O)Nc2ccc(F)cn2)c(Nc2cccnc2)s1`, the Ki in data set [1] turned out to be 0.013 µM.

Regarding `CC(C)N1CCC(Oc2ccc3[nH]c(C(=O)N4CCOCC4)cc3c2)CC1`, in [8], the Vd came out at 3.5 L/kg. In addition, the CLint scaled in [10] was 3 L/h/kg. The compound further showed a half-life in data set [11] of 1.1 h.

Regarding `c1cn[nH]c1` [PYRAZOLE], the pKa in [7] was determined as 2.52.

Regarding `O=C(Nc1nc(-c2ccc(F)c(C(F)(F)F)c2)cs1)c1cnc(N2CCC(C(=O)O)CC2)c(Cl)c1`, the bioavailability in [2] stood at 66.8%. Moreover, the half-life in data set [3] was 1.34 h. In data set [4], the Vd turned out to be 0.83 L/kg. In data set [5], the clearance was determined as 0.413 L/h/kg.

With `C[C@H](C1CC1)n1cc(C#N)nc(Nc2c(Cl)cc(OC(F)F)cc2Cl)c1=O`, the metabolised at 10 µM in data set [6] was determined as 1%.

With `c1cocn1` [OXAZOLE], the pKa in data set [7] was 0.8.

`C1CCCNCC1` [AZEPANE] yielded a pKa in [7] of 10.9.

In turn, `Cc1cc(NC(=O)c2nc(C)sc2Nc2cccnc2)ccn1` gave a Ki in data set [1] of 0.044 µM.
